Activity calls are given as the source filed them.
Experiments:
Vero = assay: Vero E6 cell cytotoxicity, dose response, cytotoxicity control (AID 540298); format: functional; conditions: Chlorocebus sabaeus
MDCK [1] = assay: MDCK cell cytotoxicity, dose response, cytotoxicity control (AID 540296); format: functional; conditions: Canis lupus familiaris
MDCK [2] = assay: antiviral activity against H1N1 influenza, dose response, cell-based, strain KY136 (AID 540257); format: functional; conditions: Canis lupus familiaris
[3] = target: T1, High affinity choline transporter 1 (Homo sapiens, UniProt Q9GZV3); assay: CHT activators, dose response, cell-based, 10-point CRC, membrane potential dye (AID 602376); format: functional
T1 sequence (Q9GZV3 whole entry): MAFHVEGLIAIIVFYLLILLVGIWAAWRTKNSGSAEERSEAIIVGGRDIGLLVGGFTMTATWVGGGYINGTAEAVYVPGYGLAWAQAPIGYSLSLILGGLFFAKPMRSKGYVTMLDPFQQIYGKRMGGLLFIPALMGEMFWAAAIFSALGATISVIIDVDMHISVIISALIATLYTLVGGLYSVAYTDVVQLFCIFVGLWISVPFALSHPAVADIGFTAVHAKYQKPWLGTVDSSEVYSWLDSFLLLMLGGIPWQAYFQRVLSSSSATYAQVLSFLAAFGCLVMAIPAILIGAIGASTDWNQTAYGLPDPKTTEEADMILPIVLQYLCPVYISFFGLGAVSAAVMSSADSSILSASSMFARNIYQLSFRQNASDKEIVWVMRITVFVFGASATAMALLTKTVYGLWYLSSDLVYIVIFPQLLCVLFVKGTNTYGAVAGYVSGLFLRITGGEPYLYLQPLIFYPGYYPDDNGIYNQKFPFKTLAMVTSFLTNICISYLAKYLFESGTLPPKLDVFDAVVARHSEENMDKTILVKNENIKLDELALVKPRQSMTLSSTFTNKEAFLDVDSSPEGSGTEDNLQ

Keap1/Nrf2 = Keap1/Nrf2 (Homo sapiens, UniProt Q14145); assay: Keap1-Nrf2 protein-protein interaction inhibitors, dose response, biochemical, fluorescence polarization, cherry-picked samples (AID 588683)
Keap1/Nrf2, sequence (Q16236 whole entry): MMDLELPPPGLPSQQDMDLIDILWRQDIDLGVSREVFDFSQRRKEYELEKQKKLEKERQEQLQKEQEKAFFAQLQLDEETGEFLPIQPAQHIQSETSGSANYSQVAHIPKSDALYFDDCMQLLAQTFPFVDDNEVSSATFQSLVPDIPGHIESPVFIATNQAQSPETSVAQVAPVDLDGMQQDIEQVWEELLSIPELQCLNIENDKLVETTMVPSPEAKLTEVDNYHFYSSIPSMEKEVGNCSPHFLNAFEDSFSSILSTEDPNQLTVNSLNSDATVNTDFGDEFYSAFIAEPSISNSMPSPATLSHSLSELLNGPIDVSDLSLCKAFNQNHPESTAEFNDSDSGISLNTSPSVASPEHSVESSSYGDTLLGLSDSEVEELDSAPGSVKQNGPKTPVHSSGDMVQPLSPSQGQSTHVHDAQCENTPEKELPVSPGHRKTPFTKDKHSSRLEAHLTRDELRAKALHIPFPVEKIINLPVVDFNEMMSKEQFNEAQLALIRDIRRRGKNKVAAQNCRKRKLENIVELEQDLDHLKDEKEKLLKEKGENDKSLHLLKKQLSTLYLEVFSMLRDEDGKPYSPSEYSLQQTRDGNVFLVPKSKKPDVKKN
Keap1/Nrf2, sequence (Q14145 whole entry): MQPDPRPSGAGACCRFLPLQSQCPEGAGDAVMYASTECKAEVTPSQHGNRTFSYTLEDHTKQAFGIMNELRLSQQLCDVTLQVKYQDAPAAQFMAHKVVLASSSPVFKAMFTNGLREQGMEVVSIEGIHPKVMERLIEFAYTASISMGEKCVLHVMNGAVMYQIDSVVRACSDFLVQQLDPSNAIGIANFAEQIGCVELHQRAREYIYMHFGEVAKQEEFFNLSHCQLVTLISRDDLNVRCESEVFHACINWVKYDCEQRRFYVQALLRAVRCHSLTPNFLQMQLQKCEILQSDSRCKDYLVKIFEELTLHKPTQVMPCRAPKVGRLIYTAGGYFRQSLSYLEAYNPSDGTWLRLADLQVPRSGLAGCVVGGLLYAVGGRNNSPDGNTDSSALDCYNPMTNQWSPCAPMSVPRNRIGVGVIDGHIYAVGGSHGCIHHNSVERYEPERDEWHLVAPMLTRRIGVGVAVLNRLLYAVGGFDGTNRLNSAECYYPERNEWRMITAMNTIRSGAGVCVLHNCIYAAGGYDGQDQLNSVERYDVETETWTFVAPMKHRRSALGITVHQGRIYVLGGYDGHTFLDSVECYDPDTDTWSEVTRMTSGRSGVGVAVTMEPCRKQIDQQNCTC

[4] = Late-stage probe development counterscreen for inhibitors of the Hepatitis C Virus non-structural protein 3 helicase (NS3): luminescence-based cell-based dose response assay to determine whether compounds that inhibit replication of HCV RNA replicon are cytotoxic. [Related pubchem assays (depositor defined):AID1800, AID1830, AID1845, AID1943, AID1945, AID2172, AID2173, AID2474, AID2476]; format: functional
NS3 = NS3 (Hepatitis C virus, UniProt A3EZJ3); assay: PubChem AID 2173; design: species or system Hepacivirus hominis
NS3, sequence (A3EZJ3 whole entry): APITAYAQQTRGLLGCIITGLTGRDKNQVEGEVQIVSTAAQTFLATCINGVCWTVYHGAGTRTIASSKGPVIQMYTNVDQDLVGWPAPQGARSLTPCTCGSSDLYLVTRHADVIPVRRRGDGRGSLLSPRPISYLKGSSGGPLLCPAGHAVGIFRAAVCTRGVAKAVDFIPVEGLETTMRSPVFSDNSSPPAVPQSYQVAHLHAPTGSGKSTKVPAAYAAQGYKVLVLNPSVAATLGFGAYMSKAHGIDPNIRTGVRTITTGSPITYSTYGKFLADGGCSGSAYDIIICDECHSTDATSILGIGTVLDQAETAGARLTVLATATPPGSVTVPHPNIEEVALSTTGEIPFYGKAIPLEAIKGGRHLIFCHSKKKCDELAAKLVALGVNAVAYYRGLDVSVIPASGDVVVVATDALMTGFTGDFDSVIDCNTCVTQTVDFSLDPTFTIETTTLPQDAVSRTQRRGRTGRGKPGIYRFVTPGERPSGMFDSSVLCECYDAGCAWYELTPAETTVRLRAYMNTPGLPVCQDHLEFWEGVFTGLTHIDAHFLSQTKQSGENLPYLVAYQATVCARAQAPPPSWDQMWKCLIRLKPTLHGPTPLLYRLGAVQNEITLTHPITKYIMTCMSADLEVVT

[5] = target: Heat shock protein HSP 90-alpha (Homo sapiens, UniProt P07900); assay: Luminescence-based dose response biochemical high throughput screening assay for inhibitors of the Heat Shock Protein 90 (HSP90). [Related pubchem assays: 1831 (Summary AID.), 1846 (Confirmation screen.), 1789 (Primary screen.)]
[6] = target: Luciferin 4-monooxygenase (Photuris pensylvanica, UniProt Q27757); assay: firefly luciferase enzyme inhibitors, dose response, counter-screen for HSF-1 reporter inhibitor project, biochemical, Cell Titer Glo, luminescence, cherry-picks (AID 588847)
Luciferin 4-monooxygenase, sequence (Q27757 whole entry): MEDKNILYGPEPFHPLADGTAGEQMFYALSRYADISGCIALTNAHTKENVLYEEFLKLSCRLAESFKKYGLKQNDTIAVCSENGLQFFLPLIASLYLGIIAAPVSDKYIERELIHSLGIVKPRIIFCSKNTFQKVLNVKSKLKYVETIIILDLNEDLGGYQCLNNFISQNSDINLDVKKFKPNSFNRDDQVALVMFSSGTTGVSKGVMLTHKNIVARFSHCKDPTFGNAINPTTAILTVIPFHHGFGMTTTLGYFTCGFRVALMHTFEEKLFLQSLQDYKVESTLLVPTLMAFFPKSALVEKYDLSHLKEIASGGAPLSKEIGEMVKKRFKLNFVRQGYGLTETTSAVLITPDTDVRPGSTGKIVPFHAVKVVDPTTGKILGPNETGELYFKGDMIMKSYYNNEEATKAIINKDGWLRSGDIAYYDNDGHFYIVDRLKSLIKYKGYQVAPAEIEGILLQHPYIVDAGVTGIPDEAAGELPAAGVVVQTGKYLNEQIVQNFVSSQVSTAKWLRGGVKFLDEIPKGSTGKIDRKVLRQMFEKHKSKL

[7] = target: Beta-adrenergic receptor kinase 1 (Homo sapiens, UniProt P25098); assay: GRK2 inhibitors displacing RNA aptamer, dose response, biochemical, flow cytometry beads, FAM-aptamer, powder set 1 (AID 588720)
[8] = A Cell Based Secondary Assay to Explore Cytotoxicity in HepG2 Cells of Compounds that Modulate Mycobacterium tuberculosis in Media Containing Glycerol versus Media without Glycerol (2).; format: functional
[9] = Vero cell cytotoxicity, cytotoxicity control for M. tuberculosis inhibitor project, purified and synthesized samples, set 3 (AID 504684); format: functional
Candida albicans [10] = assay: growth inhibition of resistant C. albicans, dose response, CaCi-8, fluconazole, Alamar Blue, dry powder (AID 488807); format: functional, organism-based
NIH3T3 = assay: cytotoxicity in NIH-3T3 fibroblasts, dose response, cytotoxicity control for antifungal drug resistance project, cell-based, Alamar Blue, fluconazole, dry powder (AID 488809); format: functional; conditions: Mus musculus
Candida albicans [11] = assay: growth inhibition of resistant C. albicans, dose response, CaCi-8 strain, fluconazole, dry powder, set 4 (AID 488950); format: functional, organism-based
[12] = target: Dual specificity protein kinase CLK1 (Homo sapiens, UniProt P49759); assay: CLK1 kinase inhibitors, off-target check, dose response, selectivity assay for Dyrk1A inhibitor project, biochemical, cherry-picked samples (AID 588811)
Dual specificity protein kinase CLK1, sequence (P49759 whole entry): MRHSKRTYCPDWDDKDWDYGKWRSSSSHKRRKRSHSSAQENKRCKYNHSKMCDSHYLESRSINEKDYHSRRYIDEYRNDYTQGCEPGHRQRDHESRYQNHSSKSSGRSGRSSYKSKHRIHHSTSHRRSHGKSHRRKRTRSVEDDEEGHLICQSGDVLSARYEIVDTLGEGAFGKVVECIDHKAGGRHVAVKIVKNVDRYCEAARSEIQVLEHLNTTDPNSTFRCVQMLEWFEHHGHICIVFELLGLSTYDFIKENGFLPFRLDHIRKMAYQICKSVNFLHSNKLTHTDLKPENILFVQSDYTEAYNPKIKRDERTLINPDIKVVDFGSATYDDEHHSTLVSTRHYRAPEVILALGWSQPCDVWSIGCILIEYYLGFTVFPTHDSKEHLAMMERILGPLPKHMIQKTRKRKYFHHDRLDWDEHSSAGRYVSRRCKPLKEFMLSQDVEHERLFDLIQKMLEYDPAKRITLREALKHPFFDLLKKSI

[13] = target: Cyclin-dependent kinase 2 (Homo sapiens, UniProt P24941); assay: CDK2 kinase inhibitors, off-target check, dose response, selectivity assay for Dyrk1A inhibitor project, biochemical, cherry-picked samples (AID 602127)
INS1 [14] = assay: protection of INS-1E cells from cytokine death, dose response, ATP luminescence, dry powder (AID 488844); format: functional, cell-based; conditions: Rattus norvegicus
INS1 [15] = assay: protection from cytokine-induced mitochondrial depolarization, dose response, cell-based, INS-1E, JC-1 fluorescence ratio, dry powder (AID 488931); format: functional; conditions: Rattus norvegicus
[16] = target: T2, Short transient receptor potential channel 4 (Mus musculus, UniProt Q9QUQ5); assay: TRPC4 inhibitor concentration-response, dose response, cell-based, HEK293 TRPC4/mu-opioid, DAMGO stimulus, Fluo-4 (AID 492994); format: functional
T2 sequence (Q9QUQ5 whole entry): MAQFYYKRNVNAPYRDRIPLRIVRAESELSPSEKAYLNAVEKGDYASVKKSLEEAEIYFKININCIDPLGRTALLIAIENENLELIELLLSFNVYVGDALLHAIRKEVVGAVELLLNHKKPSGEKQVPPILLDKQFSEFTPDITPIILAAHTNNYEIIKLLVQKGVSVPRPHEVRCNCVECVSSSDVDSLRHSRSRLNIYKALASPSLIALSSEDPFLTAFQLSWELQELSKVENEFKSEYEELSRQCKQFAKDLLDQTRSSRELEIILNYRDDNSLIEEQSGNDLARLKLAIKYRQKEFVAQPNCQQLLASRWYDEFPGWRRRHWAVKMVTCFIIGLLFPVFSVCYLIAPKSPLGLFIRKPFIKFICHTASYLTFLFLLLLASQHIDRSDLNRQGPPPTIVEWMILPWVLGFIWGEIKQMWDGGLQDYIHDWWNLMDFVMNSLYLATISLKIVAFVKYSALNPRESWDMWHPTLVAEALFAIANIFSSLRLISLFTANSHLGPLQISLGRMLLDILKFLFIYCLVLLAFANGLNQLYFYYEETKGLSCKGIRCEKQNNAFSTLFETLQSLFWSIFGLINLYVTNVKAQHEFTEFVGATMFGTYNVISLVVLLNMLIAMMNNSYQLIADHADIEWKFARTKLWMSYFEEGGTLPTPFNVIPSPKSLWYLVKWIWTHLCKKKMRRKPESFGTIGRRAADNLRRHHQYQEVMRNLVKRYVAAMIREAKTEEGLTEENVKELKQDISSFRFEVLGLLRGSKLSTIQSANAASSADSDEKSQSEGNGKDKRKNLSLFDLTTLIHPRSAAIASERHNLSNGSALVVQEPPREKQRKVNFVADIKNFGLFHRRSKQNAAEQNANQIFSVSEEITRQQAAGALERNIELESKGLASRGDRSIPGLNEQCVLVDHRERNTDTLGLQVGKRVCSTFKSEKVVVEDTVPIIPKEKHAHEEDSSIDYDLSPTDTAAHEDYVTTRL

[17] = target: T2, Short transient receptor potential channel 4; assay: SAR Analysis for the identification of selective inhibits of the transient receptor potential cation channel C4 (TRPC4): Automated Electrophysiology. [Related pubchem assays (depositor defined):AID2256]; format: functional
[18] = target: Short transient receptor potential channel 6 (Mus musculus, UniProt Q61143); assay: TRPC6 inhibition potency of TRPC4 inhibitor analogs, dose response, selectivity assay for selective TRPC4 inhibitor project, HEK293 cells, membrane potential dye, IC50 (AID 492987); format: functional, cell-based
Short transient receptor potential channel 6, sequence (Q61143 whole entry): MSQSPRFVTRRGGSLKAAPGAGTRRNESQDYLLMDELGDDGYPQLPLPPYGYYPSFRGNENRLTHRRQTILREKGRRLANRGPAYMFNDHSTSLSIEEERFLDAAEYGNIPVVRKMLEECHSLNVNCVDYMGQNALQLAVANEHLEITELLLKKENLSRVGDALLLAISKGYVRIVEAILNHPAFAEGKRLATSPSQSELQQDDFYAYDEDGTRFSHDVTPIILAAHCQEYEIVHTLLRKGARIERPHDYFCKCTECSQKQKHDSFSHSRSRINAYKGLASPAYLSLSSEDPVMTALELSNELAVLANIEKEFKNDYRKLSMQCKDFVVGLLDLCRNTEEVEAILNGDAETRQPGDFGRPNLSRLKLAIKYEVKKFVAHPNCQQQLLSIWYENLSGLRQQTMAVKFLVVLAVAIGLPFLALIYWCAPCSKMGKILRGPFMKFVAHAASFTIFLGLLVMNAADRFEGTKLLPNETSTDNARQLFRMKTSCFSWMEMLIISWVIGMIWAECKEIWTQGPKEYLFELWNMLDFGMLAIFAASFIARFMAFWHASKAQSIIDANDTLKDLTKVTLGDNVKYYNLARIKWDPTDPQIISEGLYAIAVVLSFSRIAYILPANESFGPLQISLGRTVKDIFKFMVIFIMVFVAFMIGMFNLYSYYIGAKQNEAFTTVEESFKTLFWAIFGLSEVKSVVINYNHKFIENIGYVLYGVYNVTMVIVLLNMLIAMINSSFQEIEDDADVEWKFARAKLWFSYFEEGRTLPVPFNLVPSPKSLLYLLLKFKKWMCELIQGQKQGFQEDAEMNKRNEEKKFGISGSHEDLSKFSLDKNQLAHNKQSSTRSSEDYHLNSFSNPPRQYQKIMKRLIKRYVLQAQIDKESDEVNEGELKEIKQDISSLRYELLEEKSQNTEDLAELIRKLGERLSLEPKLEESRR

BJ [19] = assay: cells; format: functional, cell-based; conditions: Homo sapiens
[20] = target: T3, Orexin/Hypocretin receptor type 1 (Homo sapiens, UniProt O43613); assay: Homogeneous Time Resolved Fluorescence (HTRF)-based cell-based high throughput dose response assay for antagonists of the orexin 1 receptor (OX1R; HCRTR1). [Related pubchem assays (depositor defined):AID434989, AID435008, AID463079, AID485270, AID492963, AID492964, AID492965, AID493232, AID504717, AID504718]; format: functional
T3 sequence (O43613 whole entry): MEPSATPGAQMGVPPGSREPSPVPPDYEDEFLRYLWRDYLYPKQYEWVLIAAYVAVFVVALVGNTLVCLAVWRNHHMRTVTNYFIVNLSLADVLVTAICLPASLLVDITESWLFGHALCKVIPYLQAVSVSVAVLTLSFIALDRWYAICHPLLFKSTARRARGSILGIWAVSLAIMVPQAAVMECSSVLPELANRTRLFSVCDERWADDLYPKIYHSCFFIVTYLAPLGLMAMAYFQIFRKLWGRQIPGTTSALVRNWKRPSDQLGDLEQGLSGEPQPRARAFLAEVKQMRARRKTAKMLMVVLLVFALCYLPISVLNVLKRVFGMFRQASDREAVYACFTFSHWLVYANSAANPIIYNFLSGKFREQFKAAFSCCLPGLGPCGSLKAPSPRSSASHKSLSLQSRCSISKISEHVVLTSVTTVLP

Orexin receptor type 2 [21] = target: T4, Orexin receptor type 2 (Homo sapiens, UniProt O43614); assay: Counterscreen assay for antagonists of the orexin 1 receptor (OX1R; HCRTR1): Fluorescence-based cell-based dose response assay for antagonists of the orexin 2 receptor (OX2R; HCRTR2), run by assay provider.; format: functional
T4 sequence (O43614 whole entry): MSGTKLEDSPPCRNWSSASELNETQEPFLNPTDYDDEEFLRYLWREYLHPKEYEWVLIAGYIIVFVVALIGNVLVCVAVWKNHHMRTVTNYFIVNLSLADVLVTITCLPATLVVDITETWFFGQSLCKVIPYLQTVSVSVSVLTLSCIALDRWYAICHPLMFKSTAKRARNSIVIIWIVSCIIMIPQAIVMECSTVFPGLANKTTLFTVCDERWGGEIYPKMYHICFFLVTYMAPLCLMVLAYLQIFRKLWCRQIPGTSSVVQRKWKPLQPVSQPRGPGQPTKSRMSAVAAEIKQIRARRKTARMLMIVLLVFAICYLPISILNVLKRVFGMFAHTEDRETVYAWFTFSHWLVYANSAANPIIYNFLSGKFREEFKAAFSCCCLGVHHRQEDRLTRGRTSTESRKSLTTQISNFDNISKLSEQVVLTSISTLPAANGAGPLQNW

BJ [22] = assay: cytotoxicity toward BJ-TERT fibroblasts, dose response, cell-based, RAS-independent, luminescence (AID 1933); format: functional; conditions: Homo sapiens
[23] = target: T3, Orexin/Hypocretin receptor type 1; assay: Fluorescence-based cell-based high throughput dose response assay for antagonists of the orexin 1 receptor (OX1R; HCRTR1). [Related pubchem assays (depositor defined):AID434989, AID435008, AID463079, AID485270, AID492963, AID492964, AID492965, AID493232, AID504717, AID504718]; format: functional
BJ [24] = assay: cytotoxicity toward BJ-TERT-LT-ST fibroblasts, dose response, cell-based, RAS-independent, luminescence (AID 1935); format: functional; conditions: Homo sapiens;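 further: BJ fibroblasts immortalized with TERT plus LT and ST oncogenes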
CHO-K1 = assay: Counterscreen for antagonists of the orexin 1 receptor (OX1R; HCRTR1): Homogeneous time resolved fluorescence (HTRF)-based cell-based dose response assay to identify antagonists of the parental CHO-K1 cell line. [Related pubchem assays (depositor defined):AID434989, AID435008, AID463079, AID485270, AID492963, AID492964, AID492965, AID493232, AID504699, AID504701]; format: functional; conditions: Cricetulus griseus;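 further: potency for inhibition of ATP-stimulated IP1 production as antagonists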
Orexin receptor type 2 [25] = target: T4, Orexin receptor type 2; assay: Counterscreen assay for antagonists of the orexin 1 receptor (OX1R; HCRTR1): Homogeneous Time Resolved Fluorescence (HTRF)-based cell-based dose response assay for antagonists of the orexin 2 receptor (OX2R; HCRTR2), run by assay provider.; format: functional
[26] = Counterscreen for antagonists of the orexin 1 receptor (OX1R; HCRTR1): Fluorescence-based cell-based high throughput dose response assay to identify antagonists of the parental CHO cell line. [Related pubchem assays (depositor defined):AID434989, AID435008, AID463079, AID485270, AID492963, AID492964, AID492965, AID493232, AID504699, AID504701]; format: functional
[27] = cytotoxicity toward DRD oncogenic fibroblasts, dose response, cell-based, non-viral oncogenic, luminescence (AID 1934); format: functional; conditions: Homo sapiens
[28] = Vero cell cytotoxicity, dose response, cytotoxicity control for Vif-APOBEC3G degradation inhibitor project, Vero cells (AID 1117358); format: functional; conditions: Human immunodeficiency virus 1, Vero
[29] = target: Dual specificity protein phosphatase 3 (Homo sapiens, UniProt P51452); assay: SAR VHR1 Fluorescent Assay for In Vitro dose response studies Set 3. [Related pubchem assays (depositor defined):AID1654, AID1661, AID1878]; format: functional
Dual specificity protein phosphatase 3, sequence (P51452 whole entry): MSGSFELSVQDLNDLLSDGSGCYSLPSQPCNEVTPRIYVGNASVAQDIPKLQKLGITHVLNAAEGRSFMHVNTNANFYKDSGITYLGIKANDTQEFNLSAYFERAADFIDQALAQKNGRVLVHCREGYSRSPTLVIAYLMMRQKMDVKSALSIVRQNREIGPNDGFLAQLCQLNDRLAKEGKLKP

CC1CCN(c2nc(NCc3ccco3)nc(N)c2[N+](=O)[O-])CC1
CC50 (Vero): > 40 µM (active) | CC50 (MDCK [1]): 11.4 µM (active) | IC50 (MDCK [2]): 2.57 µM (active)

O=C1N(Cc2cccc(Cl)c2)C[C@@H]2C[C@@H](c3cccn3-c3ccccn3)N3CCC[C@@]123
EC50 [3]: 8.22 µM (active)

COc1cc(OC)c(S(=O)(=O)Nc2ccccc2C(=O)O)cc1S(=O)(=O)Nc1ccccc1C(=O)O
AC50 (Keap1/Nrf2): > 52 µM (inactive)

Cc1ccc(C(=O)C2=C(O)C(=O)N(Cc3ccco3)C2c2cccc(Cl)c2)o1 (centres undefined)
CC50 [4]: > 100 µM (inactive) | IC50 (NS3): 5.36 µM (active)

CC(C)Sc1nc(SCC(=O)NCc2ccco2)c2c3c(sc2n1)COC(C)(C)C3
IC50 [5]: 8.37 µM (active) | AC50 [6]: > 52 µM (inactive)

Cc1ccccc1NC(=O)CCS(=O)(=O)c1ccc(Br)cc1
EC50 [7]: 11.4 µM (active)

O=C(/C=C\c1cccs1)N1CCN(Cc2ccc3c(c2)OCO3)CC1
CC50 [8]: > 50 µM (active) | CC50 [9]: > 100 µM (active)

O=C(C1CC1)N1CCN(c2ccnc3cc(Cl)ccc23)CC1
AC50 (Candida albicans [10]): 3.25 µM (active) | AC50 (NIH3T3): 1.7 µM (active) | AC50 (Candida albicans [11]): 12.4 µM (active)

c1cncc(CNc2nccc(-c3ccc4c(c3)OCO4)n2)c1
AC50 [12]: 0.00791 µM (active) | AC50 [13]: 14.3 µM (active)

COc1ccc(S(=O)(=O)N(C)C[C@@H]2Oc3c(NC(=O)Nc4cccc5ccccc45)cccc3C(=O)N([C@@H](C)CO)C[C@@H]2C)cc1
AC50 (INS1 [14]): 37.6 µM (active) | AC50 (INS1 [15]): 48 µM (active)

Cc1ccc2nc(N3CCCCC3)cc(C)c2c1
IC50 [16]: 10.2 µM (active) | IC50 [17]: 5.49 µM (active) | IC50 [18]: 8.58 µM (active)

Cc1nn(-c2ccccc2)c(C)c1/C=N/NC(=O)c1cc(-c2ccccc2)[nH]n1
EC50 (BJ [19]): 37.5 µM (inconclusive) | IC50 [20]: 1.75 µM (active) | IC50 (Orexin receptor type 2 [21]): 20.6 µM (inactive) | EC50 (BJ [22]): 0.308 µM (active) | IC50 [23]: 3.67 µM (active) | EC50 (BJ [24]): > 150 µM (inconclusive) | IC50 (CHO-K1): > 66.2 µM (inactive) | IC50 (Orexin receptor type 2 [25]): 18.8 µM (inactive) | IC50 [26]: > 49.8 µM (inactive) | EC50 [27]: 0.659 µM (inconclusive) | CC50 [28]: 8.77 µM (active)

COc1cccc2sc(NC(=O)c3ccc(C#N)cc3)nc12
IC50 [29]: 57.6 µM (active)
